SMILES strings stand for the structures.

As usually defined, the inhibition is how much of the control response was suppressed.

In this assay the target is Histone deacetylase 2 (Homo sapiens, UniProt Q92769). As to the kind of experiment: Inhibition of full-length recombinant human C-terminal GST tagged HDAC2 expressed in Sf9 insect cells using aminoluciferin peptide substrate at 100 nM preincubated for 3 hrs followed by substrate addition and measured after 30 mins by HDAC-Glo I/II chemiluminescence assay. The settings on record: time 3.5 hrs.
Chain of Histone deacetylase 2 (Q92769 whole entry): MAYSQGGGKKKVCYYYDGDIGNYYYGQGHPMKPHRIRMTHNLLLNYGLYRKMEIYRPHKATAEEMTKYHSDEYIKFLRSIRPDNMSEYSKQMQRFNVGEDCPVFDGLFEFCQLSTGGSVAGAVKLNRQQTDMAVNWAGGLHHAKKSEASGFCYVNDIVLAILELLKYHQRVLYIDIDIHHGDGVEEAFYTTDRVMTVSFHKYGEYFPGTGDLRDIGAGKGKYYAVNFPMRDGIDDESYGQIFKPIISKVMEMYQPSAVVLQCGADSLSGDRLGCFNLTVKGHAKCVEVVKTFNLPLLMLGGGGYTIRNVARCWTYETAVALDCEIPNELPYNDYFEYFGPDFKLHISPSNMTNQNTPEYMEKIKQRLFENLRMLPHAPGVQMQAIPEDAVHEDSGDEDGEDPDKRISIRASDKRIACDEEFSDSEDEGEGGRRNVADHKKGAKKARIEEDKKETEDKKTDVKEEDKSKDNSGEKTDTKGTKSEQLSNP
For the compound `Nc1ccc(-c2cccnc2)cc1NC(=O)CCc1cn(CCc2c[nH]c3ccccc23)nn1`, the inhibition was determined as 19%.
`Nc1ccc(-c2cccnc2)cc1NC(=O)CCc1cn(CCC2CCCC2)nn1`: the inhibition amounted to 0%.
Regarding `Nc1ccc(-c2ccc(F)cc2)cc1NC(=O)c1cn(CCc2ccccc2Cl)nn1`, the inhibition amounted to 0%.
Turning to `Nc1ccc(-c2cccs2)cc1NC(=O)c1ccc(-c2cn(CCCCCC(=O)O)nn2)s1`, the inhibition was 54%.
As to `Nc1ccc(-c2ccccc2)cc1NC(=O)c1cn(CCCc2ccccc2)nn1`, the inhibition came to 6%.
Turning to `Nc1ccc(-c2ccc(F)cc2)cc1NC(=O)CCc1cn(CCC2CCCC2)nn1`, the inhibition was 0%.
With `Cc1ccccc1CCn1cc(CCC(=O)Nc2cc(-c3ccc(F)cc3)ccc2N)nn1` the figure was 7%.
In the case of `Nc1ccc(-c2ccc(F)cc2)cc1NC(=O)c1cn(CCc2ccc(C(=O)O)cc2)nn1`, the inhibition stood at 31%.
Turning to `COc1ccc(-n2cc(CCC(=O)Nc3cc(-c4ccccc4)ccc3N)nn2)cc1`, the inhibition amounted to 11%.
For `Nc1ccc(-c2cccs2)cc1NC(=O)c1ccc(-c2cn(Cc3ccc(-c4ccccc4)cc3)nn2)s1`, the inhibition turned out to be 0%.
As for `Nc1ccc(-c2ccc(F)cc2)cc1NC(=O)c1cn(CCc2ccc(C(F)(F)F)cc2)nn1`, the figure is 0%.
`Cc1ccc(CCn2cc(CCC(=O)Nc3cc(-c4cccs4)ccc3N)nn2)cc1`: the inhibition is 30%.
Take `Nc1ccc(-c2cccs2)cc1NC(=O)c1cn(CCc2ccc(F)cc2)nn1`: the inhibition came out at 0%.
Take `Nc1ccc(-c2cccs2)cc1NC(=O)CCc1cn(CCN2CCc3ccccc3C2)nn1`: the inhibition turned out to be 14%.
In the case of `Nc1ccc(-c2cccs2)cc1NC(=O)c1cn(CCN2CCOCC2)nn1`, the inhibition was determined as 0%.
As for `Nc1ccc(-c2ccccc2)cc1NC(=O)c1cn(CCc2ccsc2)nn1`, the figure is 0%.
With `CCc1ccc(Cn2cc(-c3ccc(C(=O)Nc4cc(-c5cccs5)ccc4N)s3)nn2)cc1` the figure was 2%.
Regarding `Nc1ccc(-c2cccs2)cc1NC(=O)c1ccc(-c2cn(CCc3ccccc3C(F)(F)F)nn2)s1`, the inhibition came out at 0%.
With `Nc1ccc(-c2ccc(F)cc2)cc1NC(=O)c1cn(CCCCCCC(=O)O)nn1`, the inhibition is 23%.
As to `Nc1ccc(-c2ccc(F)cc2)cc1NC(=O)c1cn(CC23CC4CC(CC(C4)C2)C3)nn1`, the inhibition came to 0%.
With `Nc1ccc(-c2ccsc2)cc1NC(=O)CCc1cn(CCc2ccc3ccccc3n2)nn1` the figure was 20%; with `Cc1cccc(CCn2cc(C(=O)Nc3cc(-c4ccc(F)cc4)ccc3N)nn2)c1`, 10%.
Consider `Nc1ccc(-c2cccs2)cc1NC(=O)c1ccc(-c2cn(CCC3CCCCC3)nn2)cc1`, for which the inhibition stood at 7%.
As for `Nc1ccc(-c2cccnc2)cc1NC(=O)CCc1cn(CCC2CCCCC2)nn1`, the figure is 5%.
Consider `Nc1ccc(-c2cccs2)cc1NC(=O)c1cn(CCc2cccc([N+](=O)[O-])c2)nn1`, for which the inhibition is 13%.
In the case of `Nc1ccc(-c2cccs2)cc1NC(=O)CCc1cn(CS(=O)(=O)c2ccccc2)nn1`, the inhibition was found to be 15%.
As for `Nc1ccc(-c2ccc(F)cc2)cc1NC(=O)c1cn(CCCCCc2ccccc2)nn1`, the figure is 1%; as for `Cc1ccccc1CCn1cc(C(=O)Nc2cc(-c3ccc(F)cc3)ccc2N)nn1`, 0%.
As for `COc1ccc(Cn2cc(-c3cccc(C(=O)Nc4cc(-c5cccs5)ccc4N)c3)nn2)cc1`, the figure is 0%; as for `Nc1ccc(-c2cccs2)cc1NC(=O)c1ccc(-c2cn(CCc3ccccc3C(F)(F)F)nn2)cc1`, 0%; as for `Nc1ccc(-c2ccccc2)cc1NC(=O)CCc1cn(CCc2ccccc2C(F)(F)F)nn1`, 0%.
With `COc1ccc(CCn2cc(-c3cccc(C(=O)Nc4cc(-c5cccs5)ccc4N)c3)nn2)cc1`, the inhibition amounted to 1%.
As for `COc1ccccc1CCn1cc(CCC(=O)Nc2cc(-c3cccs3)ccc2N)nn1`, the figure is 12%; as for `Nc1ccc(-c2cccs2)cc1NC(=O)CCc1cn(CCN2CCOCC2)nn1`, 1%.
